Measured values taken from PMC5516890 (Bioconjugate chemistry, 2016).
Entries after “also recorded” stand apart in the source; their conditions may differ.

System: NOD-SCID mice bearing isogenic PSMA^+ PC3 PIP and PSMA^− PC3 flu tumors
Experiment: Biodistribution in tumor-bearing mice
Conditions: for PSMA^+ PIP tumor uptake: PSMA+ PC3 PIP xenograft; for PSMA^− flu tumor uptake: PSMA− PC3 flu xenograft
[1] = 30 min postinjection, tail vein, ± SD, n = 3–4
[2] = 60 min postinjection, tail vein, ± SD, n = 3–4
[3] = 120 min postinjection, tail vein, ± SD, n = 3–4
[4] = 240 min postinjection, tail vein, ± SD, n = 3–4

With `O=C(O)CCC(NC(=O)NC(CCCCNC(=O)CCc1cn(CC[18F])nn1)C(=O)O)C(=O)O` (stereo not shown) [[^18F]YC-88, 2-[3-(1-carboxy-5-{3-[1-(2-[^18F]fluoroethyl)-1H-1,2,3-triazol-yl]propanamido}pentyl)ureido]-pentanedioic acid] the “difference in PSMA^+ PC3 PIP tumor uptake between [^18F]YC-88 and [^18F]DCFPyL” value (30 min, P > 0.05) was “not statistically significant”, the “salivary gland uptake compared to [^18F]DCFPyL” value (30 min and 1 h postinjection) was “significantly less; also recorded: significantly lower” and the PIP/flu uptake ratio (30 min postinjection) was 70. The “PIP/kidney uptake ratio (tumor-to-kidney)” value (from here on “PIP/kidney uptake ratio”) (30 min postinjection) was 0.9, the “bladder (empty) uptake” value [1] was 17.90 ± 14.18 % ID/g and the blood uptake [1] was 1.02 ± 0.43 % ID/g. It also gave a bone uptake [1] of 0.40 ± 0.16 % ID/g, a fat uptake [1] of 0.33 ± 0.08 % ID/g and a heart uptake [1] of 0.36 ± 0.18 % ID/g. It also gave a kidney uptake [1] of 44.08 ± 12.52 % ID/g, a large intestine uptake [1] of 0.87 ± 0.85 % ID/g and a liver uptake [1] of 1.70 ± 0.21 % ID/g. For the same compound, the lung uptake [1] was 1.09 ± 0.31 % ID/g, the muscle uptake [1] was 0.22 ± 0.07 % ID/g and the pancreas uptake [1] was 0.44 ± 0.13 % ID/g. The salivary gland uptake [1] was 0.85 ± 0.39 % ID/g, the small intestine uptake [1] was 0.37 ± 0.11 % ID/g and the spleen uptake [1] was 1.67 ± 0.46 % ID/g. For the same compound, the stomach uptake [1] was 0.41 ± 0.14 % ID/g, the PIP/flu uptake ratio (60 min postinjection) was 170 and the “PIP/kidney uptake ratio” value (60 min postinjection) was 2.4. The “bladder (empty) uptake” value [2] was 7.78 ± 4.15 % ID/g, the blood uptake [2] was 0.29 ± 0.08 % ID/g and the bone uptake [2] was 0.16 ± 0.04 % ID/g. For the same compound, the fat uptake [2] was 0.31 ± 0.18 % ID/g, the heart uptake [2] was 0.18 ± 0.06 % ID/g and the kidney uptake [2] was 20.08 ± 8.09 % ID/g. The large intestine uptake [2] was 0.27 ± 0.14 % ID/g, the liver uptake [2] was 1.73 ± 0.14 % ID/g and the lung uptake [2] was 0.49 ± 0.24 % ID/g. It also gave a muscle uptake [2] of 0.11 ± 0.06 % ID/g, a pancreas uptake [2] of 0.16 ± 0.06 % ID/g and a salivary gland uptake [2] of 0.31 ± 0.07 % ID/g. It also gave a small intestine uptake [2] of 0.23 ± 0.04 % ID/g, a spleen uptake [2] of 0.69 ± 0.23 % ID/g and a stomach uptake [2] of 0.34 ± 0.20 % ID/g. For the same compound, the PIP/flu uptake ratio (120 min postinjection) was 243, the “PIP/kidney uptake ratio” value (120 min postinjection) was 4 and the “bladder (empty) uptake” value [3] was 4.33 ± 2.64 % ID/g. The blood uptake [3] was 0.28 ± 0.23 % ID/g, the bone uptake [3] was 0.37 ± 0.36 % ID/g and the fat uptake [3] was 0.17 ± 0.10 % ID/g. It also gave a heart uptake [3] of 0.07 ± 0.02 % ID/g, a kidney uptake [3] of 10.20 ± 2.76 % ID/g and a large intestine uptake [3] of 0.31 ± 0.13 % ID/g. It also gave a liver uptake [3] of 1.74 ± 0.23 % ID/g, a lung uptake [3] of 0.22 ± 0.10 % ID/g and a muscle uptake [3] of 0.10 ± 0.03 % ID/g. The pancreas uptake [3] was 0.11 ± 0.06 % ID/g, the salivary gland uptake [3] was 0.25 ± 0.07 % ID/g and the small intestine uptake [3] was 0.18 ± 0.07 % ID/g. For the same compound, the spleen uptake [3] was 0.29 ± 0.16 % ID/g, the stomach uptake [3] was 0.12 ± 0.07 % ID/g and the PIP/flu uptake ratio (240 min postinjection) was 368. For the same compound, the “PIP/kidney uptake ratio” value (240 min postinjection) was 6.7, the “bladder (empty) uptake” value [4] was 1.22 ± 0.89 % ID/g and the blood uptake [4] was 0.12 ± 0.04 % ID/g. The bone uptake [4] was 0.11 ± 0.03 % ID/g, the fat uptake [4] was 0.10 ± 0.04 % ID/g and the heart uptake [4] was 0.04 ± 0.01 % ID/g. It also gave a kidney uptake [4] of 3.84 ± 0.29 % ID/g, a large intestine uptake [4] of 0.23 ± 0.09 % ID/g and a liver uptake [4] of 1.45 ± 0.14 % ID/g. It also gave a lung uptake [4] of 0.13 ± 0.02 % ID/g, a muscle uptake [4] of 0.06 ± 0.03 % ID/g and a pancreas uptake [4] of 0.07 ± 0.02 % ID/g. For the same compound, the salivary gland uptake [4] was 0.14 ± 0.02 % ID/g, the small intestine uptake [4] was 0.14 ± 0.03 % ID/g and the spleen uptake [4] was 0.15 ± 0.05 % ID/g. For the same compound, the stomach uptake [4] was 0.06 ± 0.02 % ID/g, the “PSMA^+ PIP tumor uptake” value [1] was 40.31 ± 5.13 % ID/g and the “PSMA^+ PIP tumor uptake” value [2] was 47.58 ± 5.19 % ID/g. The “PSMA^+ PIP tumor uptake” value [3] was 41.29 ± 4.22 % ID/g, the “PSMA^+ PIP tumor uptake” value [4] was 25.74 ± 7.33 % ID/g and the “PSMA^− flu tumor uptake” value [1] was 0.58 ± 0.23 % ID/g. The “PSMA^− flu tumor uptake” value [2] was 0.28 ± 0.13 % ID/g, the “PSMA^− flu tumor uptake” value [3] was 0.17 ± 0.03 % ID/g and the “PSMA^− flu tumor uptake” value [4] was 0.07 ± 0.01 % ID/g. For the same compound, the “kidney, liver, and spleen uptake compared to [^18F]DCFPyL” value (all time points, two-tailed Student's t test) was “significantly lower”, the “difference in PSMA^− PC3 flu tumor uptake between the two radiotracers” value (any time) was “no significant difference” and the bone uptake (at all time points) was less than 1 % ID/g.
In the case of `O=C(O)CCC(NC(=O)NC(CCCCNC(=O)c1ccc([18F])nc1)C(=O)O)C(=O)O` (stereo not shown) [[^18F]DCFPyL, 2-(3-{1-carboxy-5-[(6-[^18F]fluoropyridine-3-carbonyl)-amino]-pentyl}-ureido)-pentanedioic acid, reference compound], the “PSMA^+ PC3 PIP tumor uptake compared to [^18F]YC-88” value (1, 2, and 4 h) was “significantly higher”, the blood uptake [1] was 1.67 ± 0.54 % ID/g and the bone uptake [1] was 1.00 ± 0.51 % ID/g. The fat uptake [1] was 1.42 ± 0.51 % ID/g, the heart uptake [1] was 0.84 ± 0.16 % ID/g and the kidney uptake [1] was 135.28 ± 9.75 % ID/g. The large intestine uptake [1] was 1.17 ± 0.06 % ID/g, the liver uptake [1] was 3.54 ± 0.20 % ID/g and the muscle uptake [1] was 0.54 ± 0.05 % ID/g. For the same compound, the salivary gland uptake [1] was 2.60 ± 0.60 % ID/g, the small intestine uptake [1] was 0.83 ± 0.03 % ID/g and the spleen uptake [1] was 10.67 ± 1.68 % ID/g. It also gave a stomach uptake [1] of 0.90 ± 0.14 % ID/g, a blood uptake [2] of 0.72 ± 0.22 % ID/g and a fat uptake [2] of 0.84 ± 0.44 % ID/g. The heart uptake [2] was 0.32 ± 0.09 % ID/g, the large intestine uptake [2] was 0.49 ± 0.05 % ID/g and the liver uptake [2] was 3.48 ± 0.21 % ID/g. It also gave a lung uptake [2] of 1.41 ± 0.25 % ID/g, a muscle uptake [2] of 0.36 ± 0.18 % ID/g and a pancreas uptake [2] of 0.61 ± 0.21 % ID/g. For the same compound, the salivary gland uptake [2] was 1.57 ± 0.18 % ID/g, the small intestine uptake [2] was 0.56 ± 0.12 % ID/g and the spleen uptake [2] was 5.61 ± 0.56 % ID/g. The stomach uptake [2] was 0.50 ± 0.10 % ID/g, the “bladder (empty) uptake” value [3] was 11.40 ± 9.95 % ID/g and the blood uptake [3] was 0.23 ± 0.05 % ID/g. For the same compound, the bone uptake [3] was 0.37 ± 0.05 % ID/g, the fat uptake [3] was 0.15 ± 0.02 % ID/g and the kidney uptake [3] was 61.23 ± 20.36 % ID/g. It also gave a liver uptake [3] of 3.08 ± 0.13 % ID/g, a lung uptake [3] of 0.41 ± 0.09 % ID/g and a muscle uptake [3] of 0.08 ± 0.02 % ID/g. The pancreas uptake [3] was 0.23 ± 0.05 % ID/g, the salivary gland uptake [3] was 0.43 ± 0.15 % ID/g and the small intestine uptake [3] was 0.55 ± 0.50 % ID/g. For the same compound, the spleen uptake [3] was 1.64 ± 0.40 % ID/g, the stomach uptake [3] was 0.21 ± 0.06 % ID/g and the “bladder (empty) uptake” value [4] was 16.85 ± 10.15 % ID/g. The blood uptake [4] was 0.11 ± 0.00 % ID/g, the bone uptake [4] was 0.71 ± 0.40 % ID/g and the fat uptake [4] was 0.10 ± 0.05 % ID/g. The heart uptake [4] was 0.06 ± 0.01 % ID/g, the kidney uptake [4] was 19.36 ± 2.32 % ID/g and the large intestine uptake [4] was 0.83 ± 1.00 % ID/g. The liver uptake [4] was 2.30 ± 0.28 % ID/g, the lung uptake [4] was 0.16 ± 0.02 % ID/g and the muscle uptake [4] was 0.07 ± 0.04 % ID/g. For the same compound, the pancreas uptake [4] was 0.09 ± 0.02 % ID/g, the salivary gland uptake [4] was 0.32 ± 0.22 % ID/g and the small intestine uptake [4] was 0.16 ± 0.04 % ID/g. The spleen uptake [4] was 0.55 ± 0.11 % ID/g, the stomach uptake [4] was 0.09 ± 0.03 % ID/g and the “PSMA^+ PIP tumor uptake” value [1] was 64.85 ± 19.22 % ID/g. The “PSMA^+ PIP tumor uptake” value [2] was 84.29 ± 12.29 % ID/g, the “PSMA^+ PIP tumor uptake” value [3] was 69.55 ± 1.71 % ID/g and the “PSMA^+ PIP tumor uptake” value [4] was 74.34 ± 7.28 % ID/g. For the same compound, the “PSMA^− flu tumor uptake” value [1] was 1.50 ± 0.71 % ID/g, the “PSMA^− flu tumor uptake” value [2] was 0.46 ± 0.06 % ID/g and the “PSMA^− flu tumor uptake” value [3] was 0.21 ± 0.06 % ID/g. For the same compound, the “PSMA^− flu tumor uptake” value [4] was 0.21 ± 0.17 % ID/g.
